Results on 15 molecules are retold here after ChEMBL document CHEMBL1201862, “PubChem BioAssay data set” (2004).

Test [1] addresses T1, Rac GTPase-activating protein 1 (Homo sapiens, UniProt Q9H0H5).
T1 sequence (Q9H0H5 whole entry): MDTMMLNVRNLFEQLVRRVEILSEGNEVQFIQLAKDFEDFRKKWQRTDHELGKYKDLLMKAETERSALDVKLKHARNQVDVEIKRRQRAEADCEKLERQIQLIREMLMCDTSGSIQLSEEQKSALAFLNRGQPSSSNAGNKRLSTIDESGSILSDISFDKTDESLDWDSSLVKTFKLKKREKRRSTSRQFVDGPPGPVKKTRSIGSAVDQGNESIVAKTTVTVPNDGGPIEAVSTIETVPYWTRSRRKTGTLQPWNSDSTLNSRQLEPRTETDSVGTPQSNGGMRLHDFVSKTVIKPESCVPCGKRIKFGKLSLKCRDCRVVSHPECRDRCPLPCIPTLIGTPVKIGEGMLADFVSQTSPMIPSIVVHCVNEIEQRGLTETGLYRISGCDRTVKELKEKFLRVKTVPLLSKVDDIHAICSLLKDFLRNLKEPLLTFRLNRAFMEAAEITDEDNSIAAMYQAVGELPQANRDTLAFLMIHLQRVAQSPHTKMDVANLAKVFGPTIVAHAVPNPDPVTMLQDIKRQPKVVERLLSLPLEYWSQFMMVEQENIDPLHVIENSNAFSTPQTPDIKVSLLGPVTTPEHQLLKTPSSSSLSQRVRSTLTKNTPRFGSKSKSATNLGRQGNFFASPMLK
Put plainly: MgcRacGAP GTPase-activating activity inhibitors, confirmation, biochemical, ADP Hunter fluorescence, primary and confirmatory (AID 624330). The format is functional.

Test [2] in a line: THP-1 cell cytotoxicity, dose response, cytotoxicity control for Vif-APOBEC3G degradation inhibitor project, THP-1 cells (AID 1117359). The format is functional. The settings on record: Human immunodeficiency virus 1, THP-1.
The nature of test [3]: A cytotoxicity screen of small molecule inhibitors of the PhoP region in Salmonella typhi identified in the primary screen. [Related pubchem assays: 1850, 1864, 1985 ]. In kind it is functional.
For test [4], the target named is T2, Calpain-2 catalytic subunit (Sus scrofa, UniProt P43367).
T2 sequence (P43367 whole entry): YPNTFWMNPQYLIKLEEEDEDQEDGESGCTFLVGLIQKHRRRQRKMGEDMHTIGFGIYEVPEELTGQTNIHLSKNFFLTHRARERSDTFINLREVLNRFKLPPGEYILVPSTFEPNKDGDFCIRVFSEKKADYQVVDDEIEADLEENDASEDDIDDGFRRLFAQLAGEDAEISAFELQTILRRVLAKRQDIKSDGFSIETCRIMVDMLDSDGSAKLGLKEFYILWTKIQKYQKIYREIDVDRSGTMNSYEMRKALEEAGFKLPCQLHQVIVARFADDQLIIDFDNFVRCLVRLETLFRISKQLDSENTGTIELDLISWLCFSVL
Put plainly: pig calpain II inhibitor potency, dose response, biochemical, fluorogenic peptide substrate (AID 1420). In kind it is functional.

The target of another test is Paired box protein Pax-8 (Homo sapiens, UniProt Q06710). Put plainly: inhibitors of PAX8-driven TPO luciferase reporter, dose response, RMG-I cells, cherry-pick (AID 687027).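 Further: luciferase reporter driven by Pax8 target thyroperoxidase promoter measured by SteadyGlo luminescence.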 In kind it is functional, cell-based. A general note: Reporter assays use an easily measured gene product as a stand-in for the process of interest.
Sequence of Paired box protein Pax-8 (Q06710 whole entry): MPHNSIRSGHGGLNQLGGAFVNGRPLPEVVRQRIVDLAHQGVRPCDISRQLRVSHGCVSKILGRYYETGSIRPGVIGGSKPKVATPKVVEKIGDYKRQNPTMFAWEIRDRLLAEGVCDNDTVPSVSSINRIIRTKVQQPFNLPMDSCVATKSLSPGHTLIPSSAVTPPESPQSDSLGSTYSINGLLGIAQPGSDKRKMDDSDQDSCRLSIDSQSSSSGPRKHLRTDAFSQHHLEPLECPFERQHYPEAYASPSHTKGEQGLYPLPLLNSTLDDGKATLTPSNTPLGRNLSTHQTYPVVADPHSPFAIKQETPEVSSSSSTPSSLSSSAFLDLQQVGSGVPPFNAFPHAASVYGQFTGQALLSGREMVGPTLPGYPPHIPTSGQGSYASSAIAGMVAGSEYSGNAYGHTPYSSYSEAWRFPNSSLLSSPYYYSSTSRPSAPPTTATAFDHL
The nature of test [5]: Luminescence Cell-Based Dose Retest to Confirm Inhibitors of Cancer Stem Cells. [Related pubchem assays (depositor defined):AID2717, AID2721]. In kind it is functional. The settings on record: Homo sapiens.
A short description of test [6]: MC4R antagonists, dose response, counter-screen for LGR2 antagonist project, cell-based, plate reader, cherry pick (AID 743444).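 Further: transfected HEK 293 cells stimulated with alpha-MSH peptide; potency of inhibitors of the alpha-MSH evoked signal.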 In kind it is functional. For orientation: A counterscreen serves to expose hits that act by an unwanted route or on another target.
Test [7] can be described thus: LGR2 antagonists, dose response, cell-based, HEK293, CRE-luciferase reporter, cherry pick, set 2 (AID 743343).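 Further: transfected cells were stimulated with diluted bursicon conditioned medium after compound addition.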 In kind it is functional.
Test [8] in a line: HEK293 cell cytotoxicity, dose response, cytotoxicity control, plate reader, cherry-picked samples (AID 743446). The format is functional, cell-based.
Test [9] in a line: A549 cell cytotoxicity, dose response, cytotoxicity control, plate reader, cherry-pick, antagonist series (AID 743412). In kind it is functional, cell-based.
Test [10] can be described thus: HepG2 cell cytotoxicity, dose response, cytotoxicity control, plate reader, cherry-pick, antagonist series (AID 743416). The format is functional, cell-based.
A further test has as its system P388. Put plainly: cells. The format is functional. Particulars: Mus musculus.
A further test concerns P388/ADR. Put plainly: cells. In kind it is functional. The settings on record: Mus musculus.
A further test has as its system SN12K1. Put plainly: cells. In kind it is functional. The settings on record: Homo sapiens.
A short description of test [11]: microbe, parasite or virus in culture. The settings on record: Mycobacterium tuberculosis. The format is functional.
Test [12] is described as follows: inhibitors of intracellular T. cruzi replication, confirmation, NIH3T3 host cells, beta-gal luminescence (AID 2044).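 Further: intracellular parasites grown in NIH/3T3 mouse fibroblasts as host cells; luminescent beta-galactosidase reporter signal from transgenic T. cruzi replicating inside host cells; inhibitors lower the luminescence signal.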 The format is functional, cell-based.
Test [13] in a line: cytotoxicity toward NIH3T3 fibroblasts, dose response, counter-screen, cell-based, ATP luminescence, mouse fibroblasts (AID 2010).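 Further: cells exposed to compound for about 90 hours before reading.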 In kind it is functional.
A short description of test [14]: HepG2 cell cytotoxicity, dose response, cytotoxicity control, cherry-picked samples (AID 1159577). In kind it is functional, cell-based.
The nature of test [15]: P. falciparum Dd2 growth inhibitors, dose response, SYBR Green, cherry-picked samples (AID 1159567). In kind it is functional, cell-based.
The test system of test [16] is BJ. Put plainly: cytotoxicity toward BJ-TERT-LT-ST fibroblasts, dose response, cell-based, RAS-independent, luminescence (AID 1935).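 Further: BJ fibroblasts immortalized with TERT plus LT and ST oncogenes.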 The format is functional. The settings on record: Homo sapiens.
The test system of test [17] is BJ. Put plainly: cytotoxicity toward BJ-TERT fibroblasts, dose response, cell-based, RAS-independent, luminescence (AID 1933). The settings on record: Homo sapiens. In kind it is functional.
In test [18] the test system is BJ. Put plainly: cells. In kind it is functional, cell-based. The settings on record: Homo sapiens.
A short description of test [19]: cytotoxicity toward DRD oncogenic fibroblasts, dose response, cell-based, non-viral oncogenic, luminescence (AID 1934). The format is functional. Particulars: Homo sapiens.
Test [20] in a line: cytotoxicity in HEK-293T cells, dose response, cytotoxicity control for TCR NF-kB inhibitor project, luminescence, T-cell screen hits (AID 489026).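 Further: cells exposed to compound about 14 hours before the viability readout.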 The format is functional, cell-based.
The target of a further test is Cytochrome P450 3A4 (Homo sapiens, UniProt P08684).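 Further: CYP3A4 tested as one member of a cytochrome P450 panel screen.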
Sequence of Cytochrome P450 3A4 (P08684 whole entry): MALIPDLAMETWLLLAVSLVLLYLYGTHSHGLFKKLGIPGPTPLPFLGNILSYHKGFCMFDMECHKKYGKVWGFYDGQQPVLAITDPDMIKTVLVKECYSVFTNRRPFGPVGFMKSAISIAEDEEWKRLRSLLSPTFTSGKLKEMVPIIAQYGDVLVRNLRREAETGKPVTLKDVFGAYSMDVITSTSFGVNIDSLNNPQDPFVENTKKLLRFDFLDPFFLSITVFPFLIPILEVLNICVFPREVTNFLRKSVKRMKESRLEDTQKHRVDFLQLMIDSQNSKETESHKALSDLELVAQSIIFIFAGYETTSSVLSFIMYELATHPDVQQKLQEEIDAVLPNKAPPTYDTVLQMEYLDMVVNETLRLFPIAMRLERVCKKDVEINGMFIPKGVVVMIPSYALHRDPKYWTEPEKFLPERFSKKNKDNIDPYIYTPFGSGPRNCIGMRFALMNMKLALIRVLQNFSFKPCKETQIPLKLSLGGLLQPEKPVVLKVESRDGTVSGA
For a further test, the target named is Cytochrome P450 2C19 (Homo sapiens, UniProt P33261). Put plainly: Cytochrome panel assay with activity outcomes. Panel member name: p450-cyp2c19 Compounds with AC50 equal or less than 10 uM are considered active. The format is functional. The settings on record: read-out: AC50.
Sequence of Cytochrome P450 2C19 (P33261 whole entry): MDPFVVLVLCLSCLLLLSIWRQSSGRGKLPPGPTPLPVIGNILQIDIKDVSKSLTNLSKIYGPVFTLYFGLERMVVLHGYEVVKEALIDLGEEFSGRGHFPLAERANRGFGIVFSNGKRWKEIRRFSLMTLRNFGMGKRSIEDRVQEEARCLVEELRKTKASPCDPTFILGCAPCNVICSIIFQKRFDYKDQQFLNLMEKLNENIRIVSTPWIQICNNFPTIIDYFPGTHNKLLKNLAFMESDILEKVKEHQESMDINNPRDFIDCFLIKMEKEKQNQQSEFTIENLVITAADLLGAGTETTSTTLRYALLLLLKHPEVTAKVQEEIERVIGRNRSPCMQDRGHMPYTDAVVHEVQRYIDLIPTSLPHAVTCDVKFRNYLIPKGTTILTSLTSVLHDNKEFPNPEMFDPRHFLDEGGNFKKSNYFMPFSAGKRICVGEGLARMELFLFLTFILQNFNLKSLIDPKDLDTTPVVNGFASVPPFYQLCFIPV
Test [21] in a line: cytotoxicity in HEK-293T cells, dose response, cytotoxicity control for BCR NF-kB inhibitor project, luminescence, B-cell screen hits (AID 489021).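 Further: HEK-293T cells carrying an NF-kB luciferase reporter; cells exposed to compound for about 14 hours before viability readout.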 The format is functional, cell-based.

Active and inactive are the calls of the source. Where only a bound is given, the exact number is not on record here.

As a reminder, the IC50 is the concentration at which inhibition is half-maximal. Turning to `COc1ccc2cc(C(=O)Nc3ccc(O)cc3)sc(=O)c2c1OC`, the IC50 in [1] was 24.8 µM (active). For the same molecule, in test [2], the CC50 was 25 µM (active).

One may read the EC50 as the concentration giving half of the maximal effect. `N=c1sc2c(n1Cc1ccccc1)CCCC2`: in [3], the concentration giving a half-maximal response (EC50) was > 50 µM (active).

Take `Cc1cc(C)c(NC(=O)COC(=O)Cc2ccsc2)c(C)c1`: the IC50 in test [4] was > 50 µM (not active).

Usually AC50 stands for the concentration at which the activity in the assay is half-maximal. Regarding `Cn1nnnc1Sc1ncnc2scc(-c3cccc(Br)c3)c12`, the AC50 on Paired box protein Pax-8 was 2.75 µM (active); in test [5], 1.86 µM (active); in [6], 6.1 µM (active); in test [7] it was 5.22 µM (active); in [8], 11.1 µM (active); in test [9], 9.25 µM (active).

For the molecule `C[C@H]1CN([C@@H](C)CO)C(=O)Cc2cc(NC(=O)Nc3ccc(F)cc3)ccc2O[C@H]1CN(C)CC1CCCCC1`, the half-maximal activity concentration (AC50) was 16.6 µM (active) in test [10], 55.8 µM (active) in [6], 15.4 µM (active) in test [8] and 9.61 µM (active) in [9].

One may read the GI50 as the concentration giving 50% growth inhibition. Regarding `Nc1nc(N)nc(-c2ccccc2NS(=O)(=O)c2ccc([N+](=O)[O-])cc2)n1`, the GI50 with P388 is 57.1 µM (inactive); with P388/ADR, 38.5 µM (inactive); with SN12K1, > 56.5 µM (inactive).

As to `Cc1c(CN2CCC(CO)(Cc3cccc(C(F)(F)F)c3)CC2)c2ccccc2n1C`, the CC50 in test [11] is 18.1 µM (active); in test [2], 9.2 µM (active). Moreover, the 50% effective concentration (EC50) in test [12] is 0.969 µM (active); in test [13], > 60 µM (not active).

As to `C[C@H](CO)N1C[C@H](C)[C@@H](CN(C)Cc2ccccc2)Oc2ccc(NC(=O)Nc3ccc(F)cc3)cc2CC1=O`, the AC50 in test [14] was > 39 µM (inactive); in test [15] it was 4.02 µM (active).

Regarding `CC(=O)Nc1ccc(S(=O)(=O)N2c3ccc(F)cc3CCC2C)cc1` (configuration not stated), the concentration for a half-maximal effect (EC50) with BJ [16] is 16 µM (active); with BJ [17] it was 13.5 µM (active); in the test on BJ [18], 92.3 µM (active); in [19] it was 16 µM (active). The IC50 in test [20] is > 80 µM (inactive).

Consider `CCCCCCCCCCNC1CC(OC2CC(O)(C(O)CO)Cc3c(O)c4c(c(O)c32)C(=O)c2c(OC)cccc2C4=O)OC(C)C1O` (configuration not stated), for which the GI50 in the test with P388 was 0.168 µM (active); with P388/ADR, 1.52 µM (inactive); with SN12K1, 1.25 µM (inactive).

Consider `CC(C)CC/N=c1/cc2n(-c3ccc(Cl)cc3)c3ccccc3nc-2cc1Nc1ccc(Cl)cc1`, for which the results for the GI50 in the test with P388, with P388/ADR and in the test with SN12K1 were 2.82 µM (inactive), 2.19 µM (inactive) and 6.4 µM (inactive), respectively.

In the case of `Cn1/c(=N\C(=O)CCl)sc2ccccc21`, the figures for the EC50 in test [12] and in [13] were 0.973 µM (active) and < 6 µM (inconclusive), respectively. Besides, the AC50 on Cytochrome P450 3A4 was 15.8 µM (inconclusive); at Cytochrome P450 2C19 it was 20 µM (inconclusive). Moreover, in test [21], the IC50 is > 80 µM (inactive).

Take `COC(=O)c1sccc1N=C(S)NCc1ccc(Cl)cc1`: the EC50 in [3] is > 50 µM (active).

Turning to `N=c1ccn2c(n1)O[C@H]1[C@H](O)[C@@H](CO)O[C@H]12`, in test [21], the IC50 is > 80 µM (inactive).

Turning to `CCOCCCNc1ccc(N2C(=O)C3CCCCC3C2=O)cc1[N+](=O)[O-]` (configuration not stated), the concentration for half-maximal inhibition (IC50) in test [4] is 9.18 µM (active).
